Consider 12 compounds from ChEMBL document CHEMBL1201862, “PubChem BioAssay data set” (2004).

Test [1] can be described thus: THP-1 cell cytotoxicity, dose response, cytotoxicity control for non-replicating M. tuberculosis project (AID 489025). The class given is functional.
Test [2] in a line: HepG2 cell cytotoxicity, dose response, cytotoxicity control for non-replicating M. tuberculosis project (AID 489018). Conditions: Mycobacterium tuberculosis. The format is functional.
A short description of test [3]: Vero E6 cell cytotoxicity, dose response, cytotoxicity control for non-replicating M. tuberculosis project, secondary assay (AID 492998). The note with it: Vero C1008. The format is functional, VeroE6.
A short description of test [4]: cells. The class given is functional.
The next test addresses T1, CAAX prenyl protease 2 (Saccharomyces cerevisiae S288c, UniProt Q03530).
T1 sequence (Q03530 whole entry): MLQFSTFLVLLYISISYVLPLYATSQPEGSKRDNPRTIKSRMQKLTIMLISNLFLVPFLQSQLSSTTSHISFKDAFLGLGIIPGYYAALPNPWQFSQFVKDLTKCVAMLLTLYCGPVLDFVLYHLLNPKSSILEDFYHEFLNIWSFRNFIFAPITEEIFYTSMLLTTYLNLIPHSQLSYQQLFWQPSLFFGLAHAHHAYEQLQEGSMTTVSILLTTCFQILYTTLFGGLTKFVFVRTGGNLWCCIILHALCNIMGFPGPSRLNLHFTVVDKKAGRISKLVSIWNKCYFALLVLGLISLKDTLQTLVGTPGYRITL
The format is biochemical.

Test [5] is described as follows: inhibitors of firefly luciferase expression or activity, dose response, H4 neuroglioma cells, luminescence (AID 1990). The format is functional, cell-based.
A short description of test [6]: luciferase reporter signal reduction – luminescence, H4-C neuroglioblastoma cells, dose response (AID 2458).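 Also: H4 neuroglioblastoma cells stably carrying a luciferase reporter gene fusion.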 The format is functional, cell-based. A general note: In a reporter assay the amount or activity of a reporter protein is the signal.
Test [7] is described as follows: cells. The format is functional, cell-based.
A short description of test [8]: Luminescence Cell-Based Dose Response HTS to Identify Inhibitors of 5'UTR Stem-Loop Driven Prion Protein mRNA Translation in H4 Neuroglioblastoma Cells. [Related pubchem assays: 1827 (Project Summary), 1813 (Primary HTS)]. The format is functional.
In test [9] the target is T2, Heat shock factor protein 1 (Mus musculus, UniProt P38532).
T2 sequence (P38532 whole entry): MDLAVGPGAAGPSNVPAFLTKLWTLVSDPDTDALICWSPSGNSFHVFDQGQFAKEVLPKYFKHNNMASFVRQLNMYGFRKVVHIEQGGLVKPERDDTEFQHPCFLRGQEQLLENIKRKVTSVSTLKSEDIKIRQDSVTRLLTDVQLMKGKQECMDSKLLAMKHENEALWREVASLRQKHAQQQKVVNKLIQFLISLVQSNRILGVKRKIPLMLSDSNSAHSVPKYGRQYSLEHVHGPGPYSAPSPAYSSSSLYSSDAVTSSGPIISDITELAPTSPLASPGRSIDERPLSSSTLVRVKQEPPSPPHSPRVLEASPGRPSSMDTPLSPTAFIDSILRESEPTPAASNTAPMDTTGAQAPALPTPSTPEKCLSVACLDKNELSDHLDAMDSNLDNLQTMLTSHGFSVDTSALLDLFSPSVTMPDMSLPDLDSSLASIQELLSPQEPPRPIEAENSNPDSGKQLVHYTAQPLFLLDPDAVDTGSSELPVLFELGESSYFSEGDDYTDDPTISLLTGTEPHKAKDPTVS
In words: inhibition of MG132-induced HSE-luciferase signal, confirmation, cell-based, NIH3T3, luminescence, dose retest (AID 2382).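 Also: NIH3T3 fibroblasts with HSF1-driven luciferase reporter stressed by proteasome inhibitor MG132; luminescence from HSF1-driven luciferase expression after 8 hours of MG132 stress.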 The class given is functional.

Test [10] can be described thus: inhibitors of SNCA 5'UTR-driven reporter translation, confirmation, H4 neuroglioma cells, luminescence (AID 1988). The format is functional, cell-based.
Test [11] in a line: inhibitors of SNCA 5'UTR-driven translation, confirmation, luminescence, H4 neuroglioblastoma cells, dose confirmation (AID 2454).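 Also: H4 neuroglioblastoma cells carrying an alpha-synuclein 5'UTR luciferase reporter; potency for inhibition of the luciferase signal.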 The class given is functional, cell-based.
Test [12] is described as follows: cytotoxicity in HEK-293T cells, dose response, cytotoxicity control for TCR NF-kB inhibitor project, luminescence, T-cell screen hits (AID 489026).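 Also: cells exposed to compound about 14 hours before the viability readout.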 The class given is functional, cell-based.
The target in a further test is Trypsin (Sus scrofa, UniProt P00761). The experiment in a line: porcine trypsin inhibitors, dose response, selectivity assay for Rce1 protease inhibitor project, biochemical, quenched peptide fluorescence, cherry-pick (AID 488789).
Test [13] deals with Luciferin 4-monooxygenase (Photinus pyralis, UniProt P08659). In words: firefly luciferase enzyme inhibitors, dose response, biochemical, luminescence (AID 1891).
Test [14] can be described thus: Luminescence Cell-Based Dose Confirmation HTS to Identify Inhibitors of Platelet Dense Granule Release. [Related pubchem assays: 1663 (Primary HTS), 1678 (Summary of Project)]. The class given is functional.
A short description of test [15]: Shn3 3'UTR reporter inhibitors, dose response, cell-based, Clone20 osteoblasts, firefly luciferase, cherry-picked (AID 624132).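 Also: firefly luciferase luminescence from reporter carrying the Shn3 3'UTR in osteoblasts.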 The class given is functional.
The nature of test [16]: HepG2 cell cytotoxicity, dose response, cytotoxicity control for Shn3 inhibitor project, CellTiter-Glo, cherry-picked (AID 624134). The format is functional, cell-based. (Cellular ATP, detected with luciferase, serves as a proxy for viable cell number.)
For another test, the target named is T3, Aminopeptidase N (Plasmodium falciparum FcB1/Columbia, UniProt O96935).
T3 sequence (O96935 whole entry): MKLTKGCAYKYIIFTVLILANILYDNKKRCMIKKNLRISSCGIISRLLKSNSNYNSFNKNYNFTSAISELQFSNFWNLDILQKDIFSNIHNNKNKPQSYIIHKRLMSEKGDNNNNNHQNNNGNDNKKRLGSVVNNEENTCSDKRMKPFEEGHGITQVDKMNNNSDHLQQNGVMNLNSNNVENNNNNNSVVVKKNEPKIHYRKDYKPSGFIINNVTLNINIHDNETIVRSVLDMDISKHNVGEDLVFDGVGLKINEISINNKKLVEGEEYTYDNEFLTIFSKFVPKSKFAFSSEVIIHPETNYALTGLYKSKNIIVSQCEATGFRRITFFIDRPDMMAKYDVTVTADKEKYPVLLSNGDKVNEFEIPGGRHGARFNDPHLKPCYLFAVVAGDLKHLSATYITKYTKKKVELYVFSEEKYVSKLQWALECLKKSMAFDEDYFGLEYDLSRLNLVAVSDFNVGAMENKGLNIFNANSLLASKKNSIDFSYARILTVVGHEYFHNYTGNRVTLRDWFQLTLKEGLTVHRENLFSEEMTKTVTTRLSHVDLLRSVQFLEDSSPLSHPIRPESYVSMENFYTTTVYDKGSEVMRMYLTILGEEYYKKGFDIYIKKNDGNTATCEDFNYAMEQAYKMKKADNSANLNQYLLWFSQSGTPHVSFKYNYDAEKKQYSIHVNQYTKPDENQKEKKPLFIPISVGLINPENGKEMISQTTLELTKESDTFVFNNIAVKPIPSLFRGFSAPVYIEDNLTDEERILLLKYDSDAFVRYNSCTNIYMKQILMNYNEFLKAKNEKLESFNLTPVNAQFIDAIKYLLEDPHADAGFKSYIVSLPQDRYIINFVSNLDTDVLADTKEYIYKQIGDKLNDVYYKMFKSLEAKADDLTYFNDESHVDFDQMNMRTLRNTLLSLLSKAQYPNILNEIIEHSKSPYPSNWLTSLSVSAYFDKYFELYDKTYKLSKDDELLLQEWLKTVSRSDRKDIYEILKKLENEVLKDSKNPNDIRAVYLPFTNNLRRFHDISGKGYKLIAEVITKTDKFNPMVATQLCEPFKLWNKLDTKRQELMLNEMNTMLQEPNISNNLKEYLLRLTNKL
The experiment in a line: P. falciparum M1AAP inhibitors, biochemical, fluorogenic H-Leu-NHMec substrate, 1536-well (AID 1445). On the set-up: species or system Plasmodium falciparum 3D7, 3D7.

Test [17] addresses T4, Voltage-gated N-type calcium channel alpha-1B subunit/Amyloid beta A4 precursor protein-binding family A member 1 (Homo sapiens, UniProt Q00975+Q02410). The format is protein assay.
Test [18] concerns the target T4, Voltage-gated N-type calcium channel alpha-1B subunit/Amyloid beta A4 precursor protein-binding family A member 1. The class given is protein assay. This is another data set of the same source.
The nature of test [19]: HEp-2 cell cytotoxicity, dose response, cytotoxicity control for RSV inhibitor project, HTS (AID 2410). The class given is functional. Conditions: human respiratory syncytial virus.
The target of test [20] is Peroxisome proliferator-activated receptor gamma/Nuclear receptor coactivator 1 (Homo sapiens, UniProt P37231). In words: TR-FRET dose response biochemical High Throughput Screening assay for agonists of the steroid receptor coactivator 1 (SRC-1) recruitment by the peroxisome proliferator-activated receptor gamma (PPAR gamma): non-selective agonists. [Related pubchem assays (depositor defined):AID1300, AID1808, AID504735, AID631]. The format is protein assay.

The target of test [21] is Peroxisome proliferator-activated receptor gamma/Nuclear receptor coactivator 3 (Homo sapiens, UniProt P37231). The experiment in a line: TR-FRET dose response biochemical High Throughput Screening assay for agonists of the steroid receptor coactivator 3 (SRC-3) recruitment by the peroxisome proliferator-activated receptor gamma (PPAR gamma): non-selective agonists. [Related pubchem assays: 1301 (Confirmation screen.), 1048 (Primary screen.)]. The format is functional. On the technique in general: Time-resolved FRET reads energy transfer from a long-lived donor to a nearby acceptor.

Test [22] has as its target Peroxisome proliferator-activated receptor gamma/Nuclear receptor coactivator 2 (Homo sapiens, UniProt P37231). The experiment in a line: TR-FRET dose response biochemical High Throughput Screening assay for agonists of the steroid receptor coactivator 2 (SRC-2) recruitment by the peroxisome proliferator-activated receptor gamma (PPAR gamma): non-selective agonists. [Related pubchem assays: 1297, 1032 ]. The format is functional.

Test [23] deals with Intestinal-type alkaline phosphatase (Homo sapiens, UniProt P09923). The experiment in a line: human intestinal alkaline phosphatase activators, dose response, biochemical, luminescence, uHTS hits (AID 463120). The format is functional.
In a further test the target is Nonstructural protein 1 (Influenza A virus, UniProt Q194T2). The format is functional, Influenza A virus (A/California/07/2009(H1N1)).

Active and inactive are the calls of the source. A value given as a limit tells only on which side of the number the result lay.

T4 sequence (Q00975 whole entry): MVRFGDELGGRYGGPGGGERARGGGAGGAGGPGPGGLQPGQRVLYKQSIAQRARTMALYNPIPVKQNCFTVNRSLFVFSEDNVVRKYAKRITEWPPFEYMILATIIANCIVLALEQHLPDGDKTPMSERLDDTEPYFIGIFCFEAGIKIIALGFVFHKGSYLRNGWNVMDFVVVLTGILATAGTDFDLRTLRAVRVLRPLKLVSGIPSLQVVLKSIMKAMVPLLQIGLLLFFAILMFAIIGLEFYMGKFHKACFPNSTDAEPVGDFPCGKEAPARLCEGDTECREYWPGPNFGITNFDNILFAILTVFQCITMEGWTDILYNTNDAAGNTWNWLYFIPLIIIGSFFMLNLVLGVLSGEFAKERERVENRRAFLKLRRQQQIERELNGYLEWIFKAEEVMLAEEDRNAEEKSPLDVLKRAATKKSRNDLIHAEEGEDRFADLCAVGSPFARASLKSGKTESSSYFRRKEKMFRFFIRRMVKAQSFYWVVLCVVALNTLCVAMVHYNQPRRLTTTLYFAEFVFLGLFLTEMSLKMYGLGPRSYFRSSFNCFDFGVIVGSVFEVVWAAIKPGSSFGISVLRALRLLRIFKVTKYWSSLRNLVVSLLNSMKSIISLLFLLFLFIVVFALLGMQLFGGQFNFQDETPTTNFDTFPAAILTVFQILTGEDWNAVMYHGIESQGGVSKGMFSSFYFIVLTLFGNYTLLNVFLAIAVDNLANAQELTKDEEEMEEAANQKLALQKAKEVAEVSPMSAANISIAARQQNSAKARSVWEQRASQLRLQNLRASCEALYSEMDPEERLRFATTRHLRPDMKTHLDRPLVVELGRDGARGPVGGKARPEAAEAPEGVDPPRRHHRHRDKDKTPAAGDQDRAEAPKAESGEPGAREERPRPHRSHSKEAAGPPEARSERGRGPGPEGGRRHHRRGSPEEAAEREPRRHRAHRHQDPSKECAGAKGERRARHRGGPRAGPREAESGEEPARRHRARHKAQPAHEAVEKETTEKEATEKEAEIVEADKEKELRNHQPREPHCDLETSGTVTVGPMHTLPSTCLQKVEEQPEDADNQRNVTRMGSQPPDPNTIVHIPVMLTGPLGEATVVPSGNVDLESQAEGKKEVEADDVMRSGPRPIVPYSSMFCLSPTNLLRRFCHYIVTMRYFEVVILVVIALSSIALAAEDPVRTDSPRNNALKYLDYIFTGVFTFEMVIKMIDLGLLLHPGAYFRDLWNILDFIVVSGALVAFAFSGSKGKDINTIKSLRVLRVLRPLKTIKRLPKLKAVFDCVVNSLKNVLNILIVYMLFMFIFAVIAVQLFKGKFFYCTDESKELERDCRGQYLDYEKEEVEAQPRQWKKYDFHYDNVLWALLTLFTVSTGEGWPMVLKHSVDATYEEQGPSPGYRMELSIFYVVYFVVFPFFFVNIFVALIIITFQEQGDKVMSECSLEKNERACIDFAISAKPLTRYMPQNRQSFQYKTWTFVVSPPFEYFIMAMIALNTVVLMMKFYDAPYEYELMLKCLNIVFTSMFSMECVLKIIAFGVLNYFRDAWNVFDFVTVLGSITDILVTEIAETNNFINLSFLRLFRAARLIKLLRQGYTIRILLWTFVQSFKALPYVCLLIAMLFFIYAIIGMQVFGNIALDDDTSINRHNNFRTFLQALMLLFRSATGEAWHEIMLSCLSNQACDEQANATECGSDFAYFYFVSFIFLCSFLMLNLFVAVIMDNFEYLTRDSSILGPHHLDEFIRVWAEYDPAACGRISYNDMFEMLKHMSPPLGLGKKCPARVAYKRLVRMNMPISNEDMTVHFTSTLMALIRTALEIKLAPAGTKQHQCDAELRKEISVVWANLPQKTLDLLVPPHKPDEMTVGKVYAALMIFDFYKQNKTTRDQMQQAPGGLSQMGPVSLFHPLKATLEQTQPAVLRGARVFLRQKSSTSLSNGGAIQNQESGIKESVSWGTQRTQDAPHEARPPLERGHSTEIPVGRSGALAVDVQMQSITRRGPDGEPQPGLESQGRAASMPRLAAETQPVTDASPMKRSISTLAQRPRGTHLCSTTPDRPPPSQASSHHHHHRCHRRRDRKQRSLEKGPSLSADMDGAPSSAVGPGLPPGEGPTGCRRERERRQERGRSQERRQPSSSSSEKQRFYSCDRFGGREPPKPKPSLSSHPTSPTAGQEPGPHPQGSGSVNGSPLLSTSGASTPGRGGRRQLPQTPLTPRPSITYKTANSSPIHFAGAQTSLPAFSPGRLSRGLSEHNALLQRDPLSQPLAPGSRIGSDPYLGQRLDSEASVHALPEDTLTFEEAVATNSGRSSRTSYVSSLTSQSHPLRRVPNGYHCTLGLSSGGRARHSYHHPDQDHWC
T4 sequence (Q02410 whole entry): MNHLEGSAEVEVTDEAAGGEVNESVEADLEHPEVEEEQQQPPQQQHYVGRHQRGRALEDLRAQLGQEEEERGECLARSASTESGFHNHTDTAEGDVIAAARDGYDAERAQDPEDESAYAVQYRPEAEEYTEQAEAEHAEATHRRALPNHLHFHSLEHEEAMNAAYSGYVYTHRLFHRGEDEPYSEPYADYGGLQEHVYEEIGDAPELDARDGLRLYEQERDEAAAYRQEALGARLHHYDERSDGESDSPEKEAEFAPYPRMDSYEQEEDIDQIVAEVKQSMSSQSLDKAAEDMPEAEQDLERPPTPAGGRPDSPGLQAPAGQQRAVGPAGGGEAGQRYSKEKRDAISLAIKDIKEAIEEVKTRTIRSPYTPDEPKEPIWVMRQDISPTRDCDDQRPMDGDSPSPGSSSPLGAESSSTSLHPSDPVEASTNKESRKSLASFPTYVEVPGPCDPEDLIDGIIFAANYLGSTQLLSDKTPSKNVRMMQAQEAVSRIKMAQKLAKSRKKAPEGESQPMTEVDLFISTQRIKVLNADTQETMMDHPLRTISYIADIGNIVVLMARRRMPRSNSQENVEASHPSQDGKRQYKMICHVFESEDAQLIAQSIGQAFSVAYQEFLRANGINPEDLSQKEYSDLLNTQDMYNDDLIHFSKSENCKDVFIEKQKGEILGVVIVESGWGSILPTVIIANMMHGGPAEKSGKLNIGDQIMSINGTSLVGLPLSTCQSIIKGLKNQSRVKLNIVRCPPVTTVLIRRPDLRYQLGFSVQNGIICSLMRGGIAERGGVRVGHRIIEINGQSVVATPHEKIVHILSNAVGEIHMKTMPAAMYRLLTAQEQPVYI
Chain of Peroxisome proliferator-activated receptor gamma/Nuclear receptor coactivator 1 (P37231 whole entry): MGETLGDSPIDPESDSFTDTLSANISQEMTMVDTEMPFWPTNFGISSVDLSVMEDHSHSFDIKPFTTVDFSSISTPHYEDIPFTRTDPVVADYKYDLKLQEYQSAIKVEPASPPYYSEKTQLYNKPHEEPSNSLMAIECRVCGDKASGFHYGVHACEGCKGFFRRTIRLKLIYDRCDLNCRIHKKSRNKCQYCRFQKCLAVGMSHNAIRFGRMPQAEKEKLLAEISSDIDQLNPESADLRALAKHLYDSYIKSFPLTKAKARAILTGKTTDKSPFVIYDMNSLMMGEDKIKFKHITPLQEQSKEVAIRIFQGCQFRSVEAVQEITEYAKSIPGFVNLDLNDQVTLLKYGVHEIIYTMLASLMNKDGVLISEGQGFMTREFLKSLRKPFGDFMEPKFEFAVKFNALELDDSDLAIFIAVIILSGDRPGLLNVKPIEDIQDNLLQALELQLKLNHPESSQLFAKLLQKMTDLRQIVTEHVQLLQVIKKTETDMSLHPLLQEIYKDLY
Chain of Peroxisome proliferator-activated receptor gamma/Nuclear receptor coactivator 1 (Q15788 whole entry, further chain): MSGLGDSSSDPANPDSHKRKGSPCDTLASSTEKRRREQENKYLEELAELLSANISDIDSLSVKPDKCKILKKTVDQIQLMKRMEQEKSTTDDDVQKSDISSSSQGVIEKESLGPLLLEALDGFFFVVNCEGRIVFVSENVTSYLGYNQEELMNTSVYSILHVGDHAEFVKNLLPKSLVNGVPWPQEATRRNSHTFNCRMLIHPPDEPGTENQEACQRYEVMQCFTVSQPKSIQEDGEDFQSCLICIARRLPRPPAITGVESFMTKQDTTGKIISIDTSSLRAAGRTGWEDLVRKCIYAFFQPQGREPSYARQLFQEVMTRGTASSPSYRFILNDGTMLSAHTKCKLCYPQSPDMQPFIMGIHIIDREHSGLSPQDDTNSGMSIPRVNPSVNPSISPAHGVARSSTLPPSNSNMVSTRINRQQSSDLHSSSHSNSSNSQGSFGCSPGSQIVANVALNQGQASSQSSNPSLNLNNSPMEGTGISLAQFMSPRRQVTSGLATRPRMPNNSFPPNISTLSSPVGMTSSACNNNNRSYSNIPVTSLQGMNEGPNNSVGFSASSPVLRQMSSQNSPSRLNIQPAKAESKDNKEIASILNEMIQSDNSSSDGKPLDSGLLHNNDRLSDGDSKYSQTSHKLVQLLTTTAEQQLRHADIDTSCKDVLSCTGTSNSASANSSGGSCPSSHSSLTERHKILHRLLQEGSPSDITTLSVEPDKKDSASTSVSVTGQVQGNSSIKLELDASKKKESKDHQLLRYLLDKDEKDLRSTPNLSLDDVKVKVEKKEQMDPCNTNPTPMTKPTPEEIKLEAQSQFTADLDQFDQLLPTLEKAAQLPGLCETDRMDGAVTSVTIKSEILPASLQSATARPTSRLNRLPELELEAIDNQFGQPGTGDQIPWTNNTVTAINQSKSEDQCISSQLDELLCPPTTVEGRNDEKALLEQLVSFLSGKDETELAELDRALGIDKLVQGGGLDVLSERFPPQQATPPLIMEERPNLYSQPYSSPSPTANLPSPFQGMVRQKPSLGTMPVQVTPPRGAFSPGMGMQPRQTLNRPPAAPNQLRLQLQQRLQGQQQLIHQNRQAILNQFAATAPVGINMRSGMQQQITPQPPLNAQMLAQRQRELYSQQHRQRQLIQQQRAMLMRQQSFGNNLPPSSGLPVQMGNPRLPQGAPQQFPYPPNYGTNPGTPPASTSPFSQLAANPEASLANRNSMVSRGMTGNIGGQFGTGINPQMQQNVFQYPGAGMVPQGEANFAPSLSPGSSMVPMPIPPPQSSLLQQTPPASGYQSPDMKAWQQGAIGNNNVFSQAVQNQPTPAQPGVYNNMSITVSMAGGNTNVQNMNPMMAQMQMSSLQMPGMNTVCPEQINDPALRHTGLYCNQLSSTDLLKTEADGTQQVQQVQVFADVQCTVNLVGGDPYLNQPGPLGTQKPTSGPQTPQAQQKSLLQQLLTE

As usually defined, the CC50 is the concentration at which the toxic effect on the cells reaches its halfway point. By IC50 is commonly meant the midpoint of a concentration-inhibition curve. `CCOc1ccc2nc(NC(=O)c3cnc(C)cn3)sc2c1`: the CC50 in test [1] is > 40 µM (active); in [2] it was > 20 µM (active); in [3], 12.7 µM (active). The IC50 in the test “cells [4]” was 6.53 µM (active).

As a reminder, the AC50 is the concentration giving half of the maximal activity seen. For `CCCOc1ccc(-c2nc3c(c(=O)[nH]c(=O)n3Cc3ccccc3)n2CCO)cc1OCC`, at CAAX prenyl protease 2, the AC50 was 14.5 µM (active).

In general, EC50 refers to the midpoint of the concentration-response curve. For `O=[N+]([O-])c1nn(-c2ccc3c(c2)OCCO3)[n+]([O-])c1Nc1ccccc1`, the EC50 in test [5] was < 0.1 µM (active); in test [6], 0.098 µM (active); in “cells [7]”, 4.89 µM (active); in test [8], < 0.1 µM (active); in test [9] it was < 0.16 µM (active); in [10] it was < 0.1 µM (active). The EC50 in [11] is 0.09 µM (active). The IC50 in test [12] was > 80 µM (inactive).

With `N=c1n(CCN2CCCCC2)c2ccccc2n1CC(=O)c1ccc(Cl)c(Cl)c1`, the results for the CC50 in test [1] and in test [2] were 18.2 µM (active) and 11.9 µM (active), respectively. For the same compound, the IC50 in “cells [4]” was 23.9 µM (active).

Regarding `O=C1OCCN1C(=O)[C@H]1[C@H](c2ccc(F)cc2)C(c2ccc(F)cc2)=NN1c1ccc(Br)cc1`, the AC50 on Trypsin was 14.1 µM (active).

For `O=C(Nc1nc2cc3c(cc2s1)OCCO3)C1=COCCO1`, the EC50 was < 0.1 µM (active) in test [5]; 0.432 µM (active) in [6]; 0.669 µM (active) in the test “cells [7]”; < 0.1 µM (active) in test [8]; 1.74 µM (active) in test [9]; < 0.1 µM (active) in [10]. For the same compound, the EC50 in test [13] was 1.58 µM (active); in [14] it was 5.65 µM (active); in [11] it was 0.411 µM (active). Further, the AC50 in test [15] is 2.17 µM (active); in test [16], 18.1 µM (active).

As to `CSCCC(C(=O)NC1=NCCS1)N1C(=O)c2ccccc2C1=O` (configuration not stated), the IC50 at Aminopeptidase N was 17.8 µM (active).

For `O=C(NCc1ccc2c(c1)OCO2)C1CCCN1C(=O)Nc1cccc(F)c1` (configuration not stated), at Aminopeptidase N, the IC50 was 75 µM (active).

For the compound `O=C(O)c1ccc(Nc2nc(-c3cc4ccccc4oc3=O)cs2)cc1O`, the values for the IC50 (at Aminopeptidase N; in [17]; in test [18]) were 9.7 µM (active), 7.29 µM (active) and > 50 µM (inactive), respectively.

Take `CCc1ccc(-n2c(SCc3cc(=O)n4cc(Br)ccc4n3)nc3nncc-3c2O)cc1`: the CC50 in [19] was 17 µM (active). Also, the results for the EC50 in [20], in test [21] and in test [22] were > 79.4 µM (inactive), > 79.4 µM (not active) and 14.4 µM (not active), respectively.

On to `Cc1nn(Cc2ccccc2Cl)c(C)c1C(=O)NCCN1C(=O)S/C(=C\c2ccccc2)C1=O`, for which the EC50 in [20] is > 79.4 µM (inactive); in [21], > 79.4 µM (not active); in test [22], > 79.4 µM (not active).

On to `O=C(NCCCN1CCOCC1)C(=O)N/N=C/c1ccccc1O`, for which the EC50 in [23] was 19.2 µM (active). The IC50 at Nonstructural protein 1 was 11.2 µM (active).
